Measurements from patent US9980943B2, “Methods of treating muscular dystrophy” (BOARD OF REGENTS OF THE NEVADA SYSTEM OF HIGHER EDUCATION, …, priority 2013, dated 2018).
Read-outs that look alike come from different tables or passages of the source.

Tested on: α7 integrin (LacZ reporter in α7LacZ+/− myoblasts)
Assay: qHTS of the LOPAC library and MLSMR (online screen, α7LacZ+/− myoblasts)
Details: for activation at 0.307 µM / activation at 1.53 µM / activation at 7.66 µM / activation at 38.3 µM / Emax / EC50: Mus musculus, Myoblast; for activation at 0.307 µM: read-out: Activity at 0.307 uM [%] **; for activation at 1.53 µM: read-out: Activity at 1.530 uM [%] **; for activation at 7.66 µM: read-out: Activity at 7.660 uM [%] **; for activation at 38.3 µM: read-out: Activity at 38.30uM [%] **; for EC50: read-out: Fit LogAC50 (converted)
[1] = 48 h, read-out: Fit Infinite Activity [%]

Procedure: A total of 250 α7LacZ^+/− myoblasts at passage 13 were dispensed using a multidrop (Thermo) into black low base tissue culture treated microclear aurora plates in 6 μl media containing DMEM without phenol, 5% FBS, 1× GluMax and 1× Penicillin/Streptomycin. […] Compounds were then dispensed using a Kalypsys pintool to deliver 23 nl/well compounds in DMSO (diluted into 6 μl resulting in a 1:260 dilution of compound). […] After incubation with compound, 5 μl of the media was aspirated using the Kalypsys washer/dispenser and 3 μl of the Mammalian Protein Extraction Reagent (MPER) lysis buffer (Thermo Fisher) was added. […] The plates were then incubated for 10 minutes at room temperature.
The assay was adapted for a high-throughput screen with the fully automated Kalypsys robotic system using 1536 well plates at NCGC.

| Structure (SMILES) | activation at 0.307 µM (48 h) | activation at 1.53 µM (48 h) | activation at 7.66 µM (48 h) | activation at 38.3 µM (48 h) | Emax [1] | EC50 | Emax (read-out: Max Response [%]) | Score (Table 8 Compound data) | Curve Description | Score |
| --- | --- | --- | --- | --- | --- | --- | --- | --- | --- | --- |
| COCc1c(C(=O)N/N=C(\C)c2ccc(OCc3ccccc3)cc2)nnn1-c1nonc1N [Compound 143] | 4.28% | 4.88% | 22.4% | 80.8% | 81.3% | 10 µM | 80.8% |  |  |  |
| O=C(Nc1ccc(N2CCN(C(=O)c3ccccc3F)CC2)cc1)c1cncc(Br)c1 [Compound 144] | 8.54% | 11.1% | 20.4% | 103% | 104% |  | 103% |  |  |  |
| COc1cc(NC(=O)CN(C)S(=O)(=O)c2ccc3c(c2)CC(C)N3C(C)=O)cc(OC)c1OC (stereo not shown) [Compound 145] | 0.302% | 0.181% | 15.7% | 70.5% | 70.5% | 10 µM | 70.5% |  |  |  |
| CC(=O)c1ccc(N(C(=O)CNC(=O)c2ccco2)C(C(=O)NC2CCCC2)c2ccc(C)o2)cc1 (stereo not shown) [Compound 146] | -20.8% | -20.9% | 0% | 75.5% | 75.5% | 10 µM | 75.5% |  |  |  |
| Cc1nnc(NC(=O)CSc2nnc(CCNC(=O)c3ccccc3F)n2C)s1 [Compound 147] | 0.45% | 2.7% | 29.1% | 84.9% | 91.2% |  | 84.9% |  |  |  |
| COc1ccc(CCNC(=O)Cn2nnc(C(=O)Nc3ccc(Br)cc3)c2N)cc1OC [Compound 148] | -30% | -26.8% | 12.5% | 102% | 110% |  | 102% |  |  |  |
| C/C(=N\NC(=O)c1cc(C)oc1C)c1ccc2ccccc2c1 [Compound 149] | -0.126% | 8.59% | 37% | 68% | 82.4% |  | 68% |  |  |  |
| CC(C)c1ccc(NC(=O)CN2C(=O)c3ccccc3S2(=O)=O)cc1 [Compound 150] | 0% | 0.16% | 15.1% | 67.1% | 67.4% | 10 µM | 67.1% |  |  |  |
| CCCCC(C(=O)NC1CCCC1)N(C(=O)c1snc(C(N)=O)c1N)c1ccc(C)cc1 (stereo not shown) [Compound 151] | -26.6% | -26% | 2.04% | 63.7% | 65.1% | 10 µM | 63.7% |  |  |  |
| COc1ccc(S(=O)(=O)Nc2ccc(S(=O)(=O)Nc3nccs3)cc2)cc1 [Compound 152] | -6.73% | 0% | 26.3% | 67.4% | 88.8% |  | 67.4% |  |  |  |
| Cc1cc(C(=O)Nc2cccc3ccccc23)c(C)o1 [Compound 153] | -20.8% | -14.3% | 26.2% | 66% | 74.5% |  | 66% |  |  |  |
| CC1(C)Cc2c(cnn2-c2cccc(F)c2)C(NC(=O)CCc2cnccn2)C1 (stereo not shown) [Compound 154] | -36.1% | -14.4% | 17.9% | 38.9% | 47.5% |  | 38.9% |  |  |  |
| Cc1c(C(=O)N2CCCCC2)c(S(=O)(=O)Nc2cccc(Br)c2)c(C)n1C [Compound 155] | -32.1% | -31.8% | -9.12% | 60.5% | 60.9% | 10 µM | 60.5% |  |  |  |
| O=S(=O)(N/C(=N/C1CCCCC1)c1ccccc1F)c1ccccc1 [Compound 156] | 0% | 0% | 22.9% | 65.3% | 67.8% | 10 µM | 65.3% |  |  |  |
| CCCCN(CCCC)CCNC(=O)c1cn(C)c2ccc(S(=O)(=O)N(C)C3CCCCC3)cc2c1=O [Compound 157] | -0.706% | -3.27% | 17.7% | 67.5% | 68.2% | 10 µM | 67.5% | 42 |  |  |
| O=[N+]([O-])c1cccc(S(=O)(=O)N2CCN(S(=O)(=O)N3CCOCC3)CC2)c1 [Compound 158] | 0.67% | 0.634% | 26.3% | 65.9% | 70.7% | 10 µM | 65.9% |  |  |  |
| CC(=O)Nc1ccc(NC(=O)c2cc(=O)c3cc(C)cc(C)c3o2)cc1 [Compound 159] | -4.25% | -1.91% | 17.1% | 106% | 107% |  | 106% |  |  |  |
| COc1ccc(/C=C(\NC(=O)c2ccc(C)cc2)C(=O)Nc2ccc(C(=O)O)cc2)cc1 [Compound 160] | -2.5% | -3.36% | 16% | 99.8% | 101% |  | 99.8% |  |  |  |

| Structure (SMILES) | activation at 0.307 µM (48 h) | activation at 1.53 µM (48 h) | activation at 7.66 µM (48 h) | activation at 38.3 µM (48 h) | Emax [1] | EC50 | Emax (read-out: Max Response [%]) | Score (Table 8 Compound data) | Curve Description | Score |
| --- | --- | --- | --- | --- | --- | --- | --- | --- | --- | --- |
| O=S(=O)(c1ccccc1)N1CCCC(c2nc(O)c3nnn(Cc4cccc(Cl)c4)c3n2)C1 (stereo not shown) [Compound 161] | -37% | -17.7% | 22.4% | 48.1% | 55% |  | 48.1% |  |  |  |
| COc1cccc(NC(=O)c2ccc3c(c2)CCCC3)c1 [Compound 162] | -31.8% | -27.5% | 26.3% | 54.3% | 55.3% |  | 54.3% |  |  |  |
| CN(C)CCNc1ncnc2sc(-c3ccccc3)cc12 [Compound 163] | -0.804% | -0.389% | 19.4% | 78.1% | 78.3% | 10 µM | 78.1% |  |  |  |
| CCCN1C2CCCC1CC(NC(=O)c1cccc([N+](=O)[O-])c1)C2 (stereo not shown) [Compound 164] | 1.16% | 0.0123% | 22% | 91.6% | 91.8% | 10 µM | 91.6% |  | Partial | 42 |
| O=C(NCCc1ccc(F)cc1)N[C@@H](Cc1ccccc1)C(=O)O [Compound 165] | -20.5% | -20.4% | 0% | 108% | 109% |  | 108% |  |  |  |
| O=C(CN1CCOCC1)NCc1cc([N+](=O)[O-])ccc1O [Compound 166] | 10.3% | 15.6% | 41.7% | 87.7% | 104% |  | 87.7% |  |  |  |
| COc1cc(Cl)cc(CN2CCC(CCC(=O)NC3CC3)CC2)c1OC [Compound 167] | -38.2% | -33.5% | 9.56% | 44% | 48.6% |  | 44% |  |  |  |
| COc1ccccc1C(=O)NCCOc1ccc(C(C)(C)C)cc1 [Compound 168] |  | 0% | 35.8% | 77.8% | 82.9% |  | 77.8% |  |  |  |
| COc1nccc(NCc2ccccc2)c1C#N [Compound 169] | -18.2% | -21.6% | 0.301% | 64.3% | 64.8% | 10 µM | 64.3% |  |  |  |
| Cc1ccc(-c2csnn2)cc1 [Compound 170] | 2.36% | 5.33% | 22.2% | 87.6% | 87.8% | 10 µM | 87.6% |  |  |  |
| Cc1nc2c(cnn2-c2ccccc2)c(=O)n1/N=C/c1ccccc1 [Compound 171] | 10% | 10.2% | 28.1% | 68.4% | 69.5% | 10 µM | 68.4% |  |  |  |
| CN(C)/C(S)=N/c1cccc(C(F)(F)F)c1 [Compound 172] | 8.95% | 7.22% | 31.2% | 71.2% | 73.8% | 10 µM | 71.2% |  |  |  |
| CC(C)(C)N/C=C(\C#N)S(=O)(=O)c1ccc(Br)cc1 [Compound 173] | 10.4% | 21.1% | 42.1% | 72.3% | 93% |  | 72.3% |  |  |  |
| O=C(O)CCCNC(=O)CCn1nnc2ccccc2c1=O [Compound 174] | -21.7% | -16.7% | 13.6% | 74.2% | 83.7% |  | 74.2% |  |  |  |
| CCNC(=O)COC(=O)c1cc(-c2ccco2)nc2ccccc12 [Compound 175] | -59.9% | -45.5% | 5.39% | 48.1% | 54% |  | 48.1% |  |  |  |
| COc1cccc(N2C(=O)CC(N3CCc4ccccc4C3)C2=O)c1 (stereo not shown) [Compound 176] | -22.1% | -16.9% | 5.26% | 95.9% | 96.1% | 10 µM | 95.9% |  |  |  |
| COC(=O)C1=NNC2(C)C(=O)N(c3ccc(C)cc3)C(=O)C12 (stereo not shown) [Compound 177] | 1.31% | 0.295% | 16.2% | 71.1% | 71.5% | 10 µM | 71.1% |  |  |  |
